These results are taken from publication doi:10.1101/2025.10.28.685111v1.

SMILES strings stand for the structures. Like-named read-outs stand apart in the source and are kept apart here.

Test [1] has as its system T1, Salmonella Typhimurium ATCC 14028 (STm).
T1 construct: ATCC 14028
As to the kind of experiment: microbe, parasite or virus in culture. On the set-up: Broth microdilution dose-response growth inhibition of STm in M9I, OD600, four-parameter fit. The note with it: Salmonella enterica, read-out: IC50 (µM). The procedure:
Antimicrobial susceptibility was assessed using the traditional CLSI minimum inhibitory concentration (MIC) microplate dilution methods with a few modifications ([59]). Briefly, each compound (dissolved in MQ H2O for all pantetheinamides, or DMSO for pantothenamides) was serially diluted in 96-well plates to the desired concentrations. In the case of checkerboard assays, secondary compounds were separately diluted and added to the plate. Mid-exponential phase media-adapted bacteria were added at 5 × 10^5 CFU/mL and in the case of M9I or M9A cultures, the plates were sealed with a gas permeable moisture barrier seal (FroggaBio, Canada) to prevent excessive evaporation, before incubation at 37 °C and 350 rpm, using a tabletop orbital plate shaker (OHAUS, USA). Growth was quantified based on absorbance at 600 nm (OD600) using a microplate reader. The plate was monitored until there was visible growth in the untreated control, but without allowing for overgrowth: ∼14-16h (OD600 > 0.3) in MHB, ∼36 h (OD600 > 0.2) in M9A, and ∼72-120 h (OD600 > 0.15) in M9I. The IC50 was determined using a four-parameter logarithmic curve on Prism v9.0. All experiments were done at minimum in a biological triplicate. […] Consequently, the activity was reported as an IC50 value, rather than traditional MICs. […] All other categories had 2-4 molecules with sub-100 μM IC50 values. The general trend in activities for the substituents β to the acyl amide saw CF3 (e.g. 4-01) > thiazole (e.g. 5-01) > NO2 (e.g. 1-01) > CH3 (e.g. 3-01). […] Replacement of the thioester with either a sulfonamide or triazole, rather than an amide, was detrimental to activity. […] Furthermore, increasing the conformational rigidity of the α-substituent correlated with higher IC50 values (e.g, 1-14, methyl < 1-15, dimethyl < 1-16, cyclo  Fig. 2: Screening the pantetheinamides library. a, Percentage growth inhibition of STm by each of the inhibitors in the library, tested at 500 µM in MHB, M9A, or M9I as the sole carbon source. Inhibition % values are summarized in Supplementary Data 1. b, The IC50 in M9I of a subset of the inhibitor library. The full dataset is shown in Fig. S1 and summarized in Supplementary Data 2. c, Dose-response curves in M9I, M9A, and MHB for selected inhibitors, fit to a four-parameter logarithmic curve. d, Tabulated IC50 (± 95% CI), cytotoxicity and selectivity index (given as the cytoxocity/IC50 in M9I) for the same inhibitors as in c. […] The full dataset is shown in Fig. S4a. g, Sample of results summarized in f showing the CFU of surviving STm inside the compound treated macrophages after 22 h. Data bars show the geometric mean of CFU/mL with error bars depicting the 95% CI. The vehicle control (± 95% CI) is shown as the red line. All experiments were independently repeated a minimum of 3 times, where n ≥ 4 for each condition. Significant results were determined using a one-way ANOVA with Dunnett’s multiple comparisons against the vehicle. ✱, p < 0.05; ✱✱, p < 0.01; ✱✱✱, p < 0.001; ✱✱✱✱, p < 0.0001; ns, non-significant, p > 0.05. “X” denotes that a concentration was omitted from the experiment due to toxicity.

Test [2] shares this test system. The test is described as follows: microbe, parasite or virus in culture. The settings on record: Salmonella enterica. On the set-up: Broth microdilution growth inhibition of STm at 500 uM in MHB, M9A or M9I, OD600. The procedure:
Antimicrobial susceptibility was assessed using the traditional CLSI minimum inhibitory concentration (MIC) microplate dilution methods with a few modifications ([59]). Briefly, each compound (dissolved in MQ H2O for all pantetheinamides, or DMSO for pantothenamides) was serially diluted in 96-well plates to the desired concentrations. In the case of checkerboard assays, secondary compounds were separately diluted and added to the plate. Mid-exponential phase media-adapted bacteria were added at 5 × 10^5 CFU/mL and in the case of M9I or M9A cultures, the plates were sealed with a gas permeable moisture barrier seal (FroggaBio, Canada) to prevent excessive evaporation, before incubation at 37 °C and 350 rpm, using a tabletop orbital plate shaker (OHAUS, USA). Growth was quantified based on absorbance at 600 nm (OD600) using a microplate reader. The plate was monitored until there was visible growth in the untreated control, but without allowing for overgrowth: ∼14-16h (OD600 > 0.3) in MHB, ∼36 h (OD600 > 0.2) in M9A, and ∼72-120 h (OD600 > 0.15) in M9I. The IC50 was determined using a four-parameter logarithmic curve on Prism v9.0. All experiments were done at minimum in a biological triplicate. […] To accomplish this, the compounds were screened for their ability to reduce STm growth at a high concentration (500 μM) in various media that reflect nutrient-related facets of either extracellular or intracellular environments (Fig. 2a). Mueller-Hinton broth (MHB)—the medium most widely employed for antibacterial testing—was used to represent nutrient-rich extracellular environments such as the gut, while aspects of the nutrient-limited intramacrophage environment were mimicked by using M9-minimal media containing either acetate (M9A) or itaconate (M9I) as the sole carbon source. Growth in M9A requires the glyoxylate shunt, simulating the use of fatty acids ([33]), whereas growth in M9I, as shown in our previous study, requires an active itaconate-degradation pathway and induces excess oxidative stress that is reflective of the intramacrophage environment ([34]). Of the 75 compounds tested, 31 inhibited growth (by >50%) in M9I, six in M9A, and one in MHB. […] In particular, the pantothenamides 6-13 and 6-14 were active in M9A as well as M9I, with 6-13 being the only MHB active compounds. The other M9A active compounds were 1-03 and 1-17 from the “nitro” category and 4-02 and 4-08 from the “fluoro-alkyl” category.  Fig. 2: Screening the pantetheinamides library. a, Percentage growth inhibition of STm by each of the inhibitors in the library, tested at 500 µM in MHB, M9A, or M9I as the sole carbon source. Inhibition % values are summarized in Supplementary Data 1. b, The IC50 in M9I of a subset of the inhibitor library. The full dataset is shown in Fig. S1 and summarized in Supplementary Data 2. c, Dose-response curves in M9I, M9A, and MHB for selected inhibitors, fit to a four-parameter logarithmic curve. d, Tabulated IC50 (± 95% CI), cytotoxicity and selectivity index (given as the cytoxocity/IC50 in M9I) for the same inhibitors as in c. […] The full dataset is shown in Fig. S4a. g, Sample of results summarized in f showing the CFU of surviving STm inside the compound treated macrophages after 22 h. Data bars show the geometric mean of CFU/mL with error bars depicting the 95% CI. The vehicle control (± 95% CI) is shown as the red line. All experiments were independently repeated a minimum of 3 times, where n ≥ 4 for each condition. Significant results were determined using a one-way ANOVA with Dunnett’s multiple comparisons against the vehicle. ✱, p < 0.05; ✱✱, p < 0.01; ✱✱✱, p < 0.001; ✱✱✱✱, p < 0.0001; ns, non-significant, p > 0.05. “X” denotes that a concentration was omitted from the experiment due to toxicity.

Setting [3] is: M9A, acetate minimal medium, 36 h, read-out: % Growth Inhibition (Avg) / M9A.
[4] abbreviates: M9I, itaconate minimal medium, 72-120 h, read-out: % Growth Inhibition (Avg) / M9I.
Setting [5] is: MHB, nutrient-rich medium, 14-16 h, read-out: % Growth Inhibition (Avg) / MHB.

As usually defined, the IC50 is the concentration that inhibits the measured activity by half. Regarding `CC(C)(CO)[C@@H](O)C(=O)NCCC(=O)NCCNC(=O)/C=C/C(F)(F)F` [4-04], the IC50 in test [1] worked out at 5.1 µM. Further, the inhibition at 500 µM in test [2] (setting [3]) was determined as 37%; in test [2] (setting [4]), 94%; in test [2] (setting [5]) it was 0%.

Regarding `CC(C)(CO)[C@@H](O)C(=O)NCCC(=O)NCCNC(=O)C(F)C(F)(F)F` (some centres unmarked) [4-07], the IC50 in test [1] was 30 µM. For the same molecule, the results for the inhibition at 500 µM in test [2] (setting [3]), in test [2] (setting [4]) and in test [2] (setting [5]) were 15%, 94% and 1%, respectively.

As to `CC(C)(CO)[C@@H](O)C(=O)NCCC(=O)NCCNC(=O)C1CC1(F)F` (some centres unmarked) [4-10], the IC50 in test [1] amounted to 29 µM. For the same molecule, the inhibition at 500 µM in test [2] (setting [3]) is 0%; in test [2] (setting [4]) it was 86%; in test [2] (setting [5]) it was 11%.

For the molecule `CCCCCCCNC(=O)CCNC(=O)[C@H](O)C(C)(C)CO` [6-13], the IC50 in test [1] turned out to be 0.13 µM. For the same molecule, the inhibition at 500 µM in test [2] (setting [3]) was determined as 100%; in test [2] (setting [4]), 100%; in test [2] (setting [5]) it was 90%.

Regarding `CCCCCCCC(=O)NCCNC(=O)[C@H](O)C(C)(C)CO` [6-14], the IC50 in test [1] amounted to 1.1 µM. Also, the figures for the inhibition at 500 µM in test [2] (setting [3]), in test [2] (setting [4]) and in test [2] (setting [5]) were 98%, 99% and 16%, respectively.
